Test results published in the supplement of paper PMC10307832.

Key:
Test in all cases: relative viability (nuclei count vs DMSO), 5 days (fraction); higher = more cells survive
CX-5461 + OSI-027 = compound: Cc1cnc(CNC(=O)c2c(=O)c3ccc(N4CCCN(C)CC4)nc3n3c2sc2ccccc23)cn1 [CX-5461] + COc1cccc2cc(-c3nc([C@H]4CC[C@H](C(=O)O)CC4)n4ncnc(N)c34)[nH]c12 [OSI-027] (partner 0.5 µM)
Outline: (§1)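 Nuclei were stained with Hoechst during a one-step fixation (final 0.05% Triton X-100, 1% formaldehyde, 1 ug/ml Hoechst) carried out 5 days after dosing, then counted on 4× images. The cells, lung cancer lines in 1536-well plates, had been dosed by pin tool the day after seeding with one drug alone or a fixed anchor-drug dose plus five library-drug doses (not always all listed) in √10 steps. Relative viability is the nuclei count in treated wells divided by that in vehicle wells, and each value is the median of duplicate plates.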

CX-5461 + Phenformin = compound: Cc1cnc(CNC(=O)c2c(=O)c3ccc(N4CCCN(C)CC4)nc3n3c2sc2ccccc23)cn1 [CX-5461] + N=C(N)NC(=N)NCCc1ccccc1 [Phenformin] (partner 250 µM)
Outline: as §1

IMD-0354 + Luminespib = compound: O=C(Nc1cc(C(F)(F)F)cc(C(F)(F)F)c1)c1cc(Cl)ccc1O [IMD-0354] + CCNC(=O)c1noc(-c2cc(C(C)C)c(O)cc2O)c1-c1ccc(CN2CCOCC2)cc1 [Luminespib] (partner 0.01 µM)
Outline: as §1

CX-5461 + Linsitinib = compound: Cc1cnc(CNC(=O)c2c(=O)c3ccc(N4CCCN(C)CC4)nc3n3c2sc2ccccc23)cn1 [CX-5461] + C[C@]1(O)C[C@@H](c2nc(-c3ccc4ccc(-c5ccccc5)nc4c3)c3c(N)nccn32)C1 [Linsitinib] (partner 1 µM)
Outline: as §1

| Cell Line | relative viability (CX-5461 + OSI-027; first compound 0.01 µM) | relative viability (CX-5461 + OSI-027; first compound 0.03162 µM) | relative viability (CX-5461 + OSI-027; first compound 0.1 µM) | relative viability (CX-5461 + OSI-027; first compound 0.3162 µM) | relative viability (CX-5461 + OSI-027; first compound 1 µM) | relative viability (CX-5461 + Phenformin; first compound 0.01 µM) | relative viability (CX-5461 + Phenformin; first compound 0.03162 µM) | relative viability (CX-5461 + Phenformin; first compound 0.1 µM) | relative viability (CX-5461 + Phenformin; first compound 0.3162 µM) | relative viability (CX-5461 + Phenformin; first compound 1 µM) | relative viability (IMD-0354 + Luminespib; first compound 0.04 µM) | relative viability (IMD-0354 + Luminespib; first compound 0.1265 µM) | relative viability (IMD-0354 + Luminespib; first compound 0.4 µM) | relative viability (IMD-0354 + Luminespib; first compound 1.265 µM) | relative viability (IMD-0354 + Luminespib; first compound 4 µM) | relative viability (CX-5461 + Linsitinib; first compound 0.01 µM) | relative viability (CX-5461 + Linsitinib; first compound 0.03162 µM) | relative viability (CX-5461 + Linsitinib; first compound 0.1 µM) | relative viability (CX-5461 + Linsitinib; first compound 0.3162 µM) | relative viability (CX-5461 + Linsitinib; first compound 1 µM) |
| --- | --- | --- | --- | --- | --- | --- | --- | --- | --- | --- | --- | --- | --- | --- | --- | --- | --- | --- | --- | --- |
| HCC-44 | 0.564 | 0.623 | 0.6 | 0.51 | 0.366 | 0.179 | 0.205 | 0.145 | 0.229 | 0.136 | 0.737 | 1.1 | 0.786 | 0.311 | 0.239 | 0.734 | 0.681 | 0.685 | 0.676 | 0.644 |
| HCC-827 | 0.838 | 0.828 | 0.79 | 0.757 | 0.735 | 0.406 | 0.426 | 0.444 | 0.406 | 0.359 | 0.686 | 0.589 | 0.589 | 0.235 | 0.129 | 0.901 | 1.01 | 0.999 | 0.946 | 0.957 |
| NCI-H1623 | 0.394 | 0.434 | 0.481 | 0.41 | 0.417 | 0.556 | 0.588 | 0.556 | 0.616 | 0.593 | 0.405 | 0.369 | 0.461 | 0.332 | 0.287 | – | – | – | – | – |
| NCI-H2347 | 0.326 | 0.395 | 0.411 | 0.553 | 0.395 | 0.546 | 0.361 | 0.337 | 0.338 | 0.397 | 0.523 | 0.331 | 0.356 | 0.395 | 0.267 | 0.963 | 1.03 | 1.04 | 0.582 | 0.795 |
| PC-14 | 0.927 | 1.01 | 0.85 | 0.729 | 0.236 | 0.761 | 0.511 | 0.499 | 0.229 | 0.319 | 0.143 | 0.18 | 0.152 | 0.134 | 0.109 | 0.954 | 0.992 | 1.03 | 0.987 | 0.878 |
| NCI-H1651 | 0.61 | 0.62 | – | 0.458 | 0.131 | 0.322 | 0.26 | – | 0.251 | 0.132 | 0.984 | 0.557 | 0.289 | 0.247 | 0.153 | – | 0.755 | – | 0.714 | 0.11 |
| HARA | 0.616 | 0.572 | 0.423 | – | 0.319 | 0.416 | 0.414 | 0.48 | – | 0.353 | 0.863 | 0.689 | 0.37 | 0.16 | 0.125 | 0.953 | 1.04 | 0.98 | 0.772 | 0.966 |
| NCI-H1650 | 0.678 | 0.643 | 0.283 | 0.497 | 0.182 | 0.409 | 0.275 | 0.191 | 0.33 | 0.148 | 0.215 | 0.208 | 0.171 | 0.196 | 0.176 | – | – | – | – | – |
| NCI-H1793 | 0.296 | 0.289 | 0.318 | – | 0.198 | 0.388 | 0.392 | 0.433 | – | 0.289 | 0.149 | 0.159 | 0.152 | 0.143 | 0.175 | 1.05 | 0.913 | 0.941 | 0.913 | 0.752 |
| SK-LU-1 | 0.347 | 0.321 | 0.386 | – | 0.203 | 0.615 | 0.545 | 0.397 | – | 0.229 | 0.178 | 0.169 | 0.244 | 0.149 | 0.169 | 1.31 | 1.11 | 0.945 | 0.921 | 0.497 |
| LU99A | 0.338 | 0.295 | 0.333 | 0.257 | 0.258 | 0.911 | 0.855 | 0.821 | 0.528 | 0.21 | 0.214 | 0.264 | 0.221 | 0.196 | 0.201 | 0.562 | 0.575 | 0.494 | 0.345 | 0.53 |
| NCI-H1355 | 0.438 | 0.428 | 0.456 | 0.267 | 0.321 | 0.501 | 0.458 | 0.454 | 0.299 | 0.244 | 0.769 | 0.585 | 0.567 | 0.333 | 0.32 | 0.859 | 0.845 | 0.893 | 0.838 | 0.787 |
| HCC-78 | 0.409 | 0.362 | 0.366 | 0.363 | 0.354 | 0.729 | 0.66 | 0.764 | 0.783 | 0.55 | – | – | – | – | – | 0.566 | 0.548 | 0.502 | 0.437 | 0.398 |
| NCI-H1563 | 0.715 | 0.745 | 0.691 | 0.771 | 0.52 | 0.663 | 0.677 | 0.531 | 0.627 | 0.457 | 0.232 | 0.57 | 0.5 | 0.492 | 0.206 | 1.19 | 1.14 | 0.894 | 0.995 | 0.664 |
| HCC-15 | 0.692 | 0.71 | 0.66 | 0.554 | 0.253 | 0.514 | 0.53 | 0.372 | 0.467 | 0.163 | 0.236 | 0.257 | 0.275 | 0.104 | 0.0925 | 0.906 | 0.904 | 0.933 | 0.909 | 0.834 |
| EKVX | 0.745 | 0.676 | 0.786 | 0.734 | 0.688 | 0.231 | 0.236 | 0.186 | 0.224 | 0.24 | 1.05 | 0.672 | 0.783 | 0.767 | 0.117 | 1.19 | 1.02 | 0.962 | – | 0.962 |
| NCI-H2087 | 0.61 | 0.499 | 0.474 | 0.369 | 0.407 | 0.411 | 0.406 | 0.398 | 0.316 | 0.32 | 0.147 | 0.183 | 0.173 | 0.12 | 0.127 | 1.03 | 0.999 | 0.946 | 0.811 | 1.05 |
